Test system: systemic lupus erythematosus (SLE) in MRL/MpJFASlpr mice
Assay: MRL/MpJFASlpr mouse model of systemic lupus erythematosus
Type: in vivo
Conditions: for Histopathology Glomerulus Diameter / Histopathology Summed Score / Kidney (paired) Weight (g) / Change in Body Weight (g) wk 1-12 / Histopathology Interstitial Inflammation: mean (SE); for absolute kidney weights, reduction vs Vehicle Disease Controls / absolute mesenteric lymph node weights, reduction vs Vehicle Disease Controls: term animals
Protocol: A study designed to determine the effects of candidate anti-inflammatory agent Formula (II) in oral (PO), daily (QD) administration in the treatment of systemic lupus erythematosus (SLE) in MRL/MpJFASlpr mice. Formula (II) was preformulated in vehicle (0.4% HPMC, 0.1% Tween 80, with simethicone for antifoaming). The female MRL/MpJFASlpr mice were dosed with vehicle or Formula (II) (1, 5, or 25 mg/kg) daily (QD) by the oral (PO) route dosing, or they were dosed QD by the intraperitoneal (IP) route with the reference compound cyclophosphamide (15 mg/kg). Prior to dosing, the candidate anti-inflammatory agent was reconstituted either by vortexing or stirring. […]
Female MRL/MpJFASlpr mice (n=50) that were 8-9 weeks old and weighed approximately 28-41 grams (mean 34 g) at enrollment (mouse age approx. 12 weeks) were obtained from The Jackson Laboratory, Bar Harbor, Me. (stock number 000485). These mice were housed 3-5/cage in shoe-box polycarbonate cages with wire tops, wood chip bedding, and suspended food and water bottles. No concurrent medications were given.
When they were 12 weeks old (study day 0), the female MRL/MpJFASlpr mice (n=10/group) were randomized by body weight into 5 groups as shown above. Treatment was initiated after randomization and continued for […] (mouse age 12 weeks to 23 weeks).
Starting on study week one, and then every week thereafter urine from each animal was tested for proteinuria using the Clinitech Multistick test strip (Bayer). The animals were also observed daily for significant clinical signs, moribundity and mortality. […] Efficacy evaluation was based on animal body weights, proteinuria analysis, lymphadenopathy scores, skin lesion scores, organ weights, anti-dsDNA titers, clinical chemistry parameters, and histopathologic evaluation of the kidneys.
Any animals showing signs of morbundity were terminated immediately. At necropsy (3 h post-dose, mouse age 23 weeks), all remaining animals were anesthetized with Isoflurane and bled via cardiac puncture for serum and plasma (Li Heparin). The animals were bled to exsanguinate then euthanized by cervical dislocation. Spleens, kidneys (paired), and lymph nodes were collected and weighed. Kidneys were collected into 10% neutral buffered formalin (NBF). Spleens were placed in RPMI 1% FBS media for splenocyte isolation. Serum samples for potential clinical chemistry analysis were stored frozen at −80° C. until shipment to Antech Diagnostics. Plasma samples were stored frozen at −80° C. for mouse antidsDNA IgG analysis by ELISA.
Blood samples were drawn via cardiac puncture from Isoflurane anesthetized animals into serum separator microtainer tubes for clinical chemistries. Samples were shipped to Antech Diagnostics for analysis.

[1] = 1 mg/kg PO QD, term animals only
[2] = 5 mg/kg PO QD, term animals only
[3] = 25 mg/kg PO QD, term animals only

SMILES: CC#CC(=O)N1CCC[C@H]1c1nc(-c2ccc(C(=O)Nc3ccccn3)cc2)c2c(N)nccn12 [Formula (II), (S)-4-(8-amino-3-(1-(but-2-ynoyl)pyrrolidin-2-yl)imidazo[1,5-a]pyrazin-1-yl)-N-(pyridin-2-yl)benzamide]
- Percent Survival (1 mg/kg PO QD): 100%
- Histopathology Glomerulus Diameter (1 mg/kg PO QD, All Animals): *87.78 (3.82)
- Histopathology Summed Score (1 mg/kg PO QD, All Animals): 7.70 (1.07)
- Kidney (paired) Weight (g) (1 mg/kg PO QD, All Animals): 0.576 (0.03) g
- Change in Body Weight (g) wk 1-12 (1 mg/kg PO QD, Term Animals): 8.10 (0.66) g
- Histopathology Glomerulus Diameter (1 mg/kg PO QD, Term Animals): 87.78 (3.82)
- Histopathology Summed Score (1 mg/kg PO QD, Term Animals): 7.70 (1.07)
- Kidney (paired) Weight (g) (1 mg/kg PO QD, Term Animals): 0.576 (0.03) g
- glomerulus diameter, reduction vs Vehicle Disease Controls (1 mg/kg PO QD, all animals): 43%
- percent of glomeruli with crescents, reduction (1 mg/kg PO QD, all animals): 97%
- serum clinical chemistries vs Vehicle Disease Controls (1 mg/kg PO QD, all animals): significantly increased albumin (ALB), glucose (GLU), and sodium/potassium ratio (Na/K) and significantly reduced blood urea nitrogen (BUN), BUN/creatinine, phosphorus (P), potassium (K), cholesterol (CHOL), and amylase (AMY)
- percent of glomeruli with crescents, reduction [1]: 90%
- serum clinical chemistries vs Vehicle Disease Controls [1]: significantly reduced BUN and BUN/creatinine
- Percent Survival (5 mg/kg PO QD): 90%
- mice that died or were sacrificed moribund prior to study termination (5 mg/kg PO QD): 1 of 10
- Histopathology Glomerulus Diameter (5 mg/kg PO QD, All Animals): *80.53 (5.64)
- Histopathology Interstitial Inflammation (5 mg/kg PO QD, All Animals): 1.98 (0.29)
- Histopathology Summed Score (5 mg/kg PO QD, All Animals): *5.60 (0.98)
- Kidney (paired) Weight (g) (5 mg/kg PO QD, All Animals): 0.544 (0.02) g
- Change in Body Weight (g) wk 1-12 (5 mg/kg PO QD, Term Animals): 7.01 (0.67) g
- Histopathology Glomerulus Diameter (5 mg/kg PO QD, Term Animals): *80.17 (6.29)
- Histopathology Interstitial Inflammation (5 mg/kg PO QD, Term Animals): 1.97 (0.33)
- Histopathology Summed Score (5 mg/kg PO QD, Term Animals): *5.50 (1.08)
- Kidney (paired) Weight (g) (5 mg/kg PO QD, Term Animals): *0.531 (0.02) g
- glomerulus diameter, reduction (5 mg/kg PO QD, all animals): 60%
- glomerulus score, reduction (5 mg/kg PO QD, all animals): 58%
- percent of glomeruli with crescents, reduction (5 mg/kg PO QD, all animals): 99%
- protein cast score, reduction (5 mg/kg PO QD, all animals): 92%
- serum clinical chemistries vs Vehicle Disease Controls (5 mg/kg PO QD, all animals): significantly increased ALB, GLU, calcium (CA), and Na/K and significantly reduced BUN, BUN/creatinine, K, CHOL, and AMY
- summed histopathology scores, reduction (5 mg/kg PO QD, all animals): 63%
- vasculitis, reduction (5 mg/kg PO QD, all animals): 52%
- absolute kidney weights, reduction vs Vehicle Disease Controls (5 mg/kg PO QD): 16%
- absolute mesenteric lymph node weights, reduction vs Vehicle Disease Controls (5 mg/kg PO QD): 52%
- glomerulus diameter, reduction [2]: 46%
- percent of glomeruli with crescents, reduction [2]: 98%
- protein cast score, reduction [2]: 90%
- serum clinical chemistries vs Vehicle Disease Controls [2]: significantly increased ALB, albumin/globulin ratio (A/G), GLU and Na/K and significantly reduced BUN, BUN/creatinine, and K
- summed histopathology scores, reduction [2]: 54%
- Percent Survival (25 mg/kg PO QD): 100%
- Histopathology Glomerulus Diameter (25 mg/kg PO QD, All Animals): *74.78 (1.62)
- Histopathology Interstitial Inflammation (25 mg/kg PO QD, All Animals): *1.53 (0.15)
- Histopathology Summed Score (25 mg/kg PO QD, All Animals): *3.88 (0.34)
- Kidney (paired) Weight (g) (25 mg/kg PO QD, All Animals): 0.511 (0.01) g
- Change in Body Weight (g) wk 1-12 (25 mg/kg PO QD, Term Animals): 6.90 (0.56) g
- Histopathology Glomerulus Diameter (25 mg/kg PO QD, Term Animals): *74.78 (1.62)
- Histopathology Interstitial Inflammation (25 mg/kg PO QD, Term Animals): *1.53 (0.15)
- Histopathology Summed Score (25 mg/kg PO QD, Term Animals): *3.88 (0.34)
- Kidney (paired) Weight (g) (25 mg/kg PO QD, Term Animals): *0.511 (0.01) g
- glomerulus crescent score, reduction (25 mg/kg PO QD, all animals): 100%
- glomerulus diameter, reduction (25 mg/kg PO QD, all animals): 73%
- glomerulus score, reduction (25 mg/kg PO QD, all animals): 76%
- interstitial inflammation, reduction (25 mg/kg PO QD, all animals): 59%
- percent of glomeruli with crescents, reduction (25 mg/kg PO QD, all animals): 100%
- protein cast score, reduction (25 mg/kg PO QD, all animals): 98%
- serum clinical chemistries vs Vehicle Disease Controls (25 mg/kg PO QD, all animals): significantly increased ALB, GLU, calcium (CA), and Na/K and significantly reduced BUN, BUN/creatinine, K, CHOL, and AMY
- summed histopathology scores, reduction (25 mg/kg PO QD, all animals): 75%
- vasculitis, reduction (25 mg/kg PO QD, all animals): 52%
- urine protein scores vs Vehicle Disease Controls (25 mg/kg PO QD, all animals, mouse age 14-15 and 21-22): significantly reduced
- absolute kidney weights, reduction vs Vehicle Disease Controls (25 mg/kg PO QD): 19%
- absolute mesenteric lymph node weights, reduction vs Vehicle Disease Controls (25 mg/kg PO QD): 49%
- glomerulus crescent score, reduction [3]: 100%
- glomerulus diameters, reduction [3]: 63%
- glomerulus score, reduction [3]: 72%
- interstitial inflammation, reduction [3]: 51%
- percent of glomeruli with crescents, reduction [3]: 100%
- protein cast score, reduction [3]: 97%
- serum clinical chemistries vs Vehicle Disease Controls [3]: significantly increased ALB and CA and significantly reduced BUN and BUN/creatinine
- summed histopathology scores, reduction [3]: 68%
- vasculitis, reduction [3]: 47%
- urine protein scores vs Vehicle Disease Controls (25 mg/kg PO QD, term animals only, mouse age 22): significantly reduced
- anti-dsDNA IgG levels vs Vehicle Disease Controls (1, 5 or 25 mg/kg PO QD): not significantly affected
- body weight change vs Vehicle Disease Controls (1, 5 or 25 mg/kg PO QD): did not differ significantly
- cumulative lymph node weights vs Vehicle Disease Controls (1, 5 or 25 mg/kg PO QD): did not differ significantly
- lymphadenopathy scores vs Vehicle Disease Controls (1, 5 or 25 mg/kg PO QD): not significantly affected
- skin lesion scores vs Vehicle Disease Controls (1, 5 or 25 mg/kg PO QD): not significantly affected
- spleen weights vs Vehicle Disease Controls (1, 5 or 25 mg/kg PO QD): did not differ significantly
